Source: paper PMC4467156, “A new chemical inhibitor of angiogenesis and tumorigenesis that targets the VEGF signaling pathway upstream of Ras” (Oncotarget, 2015)
Structures can show the parent of a compound that is named as a salt.

What was measured:
HMEC-GFP cells = test: Scratch wound closure assay, HMEC-GFP; assay type: cell-based, human; conditions: for IC50: wound closure after 24 h, 10% FCS, tested 3.125 μM to 100 μM; for activity on HMEC-GFP wound closure: structure-activity relationship analysis
Excerpt: In order to adapt the endothelial scratch wounding assay to the constraints of high throughput screening, we decided to use an endothelial cell line rather than primary cultures for the sake of reproducibility. Since angiogenesis is triggered by capillary endothelial cells, we selected the HMEC-1 cell line which consists of human dermal microvascular endothelial cells stably expressing SV40 […] antigen. We infected this cell line with GFP-encoding retroviral particles and selected one clone (thereafter named HMEC-GFP) that presented a high level of fluorescence and a strong proliferation rate (doubling time in the presence of serum: 22 h). We controlled that GFP expression was stable over at least 50 passages and that these cells still expressed endothelial markers such as VE-cadherin and CD31. In a standard assay, HMEC-GFP cells were grown until confluence in 96-well plates in the presence of serum, scratched with the multi-tip dispenser of the HTS automat, gently rinsed twice to eliminate detached cells and cell debris that could liberate inflammatory and potentially angiogenic cytokines, and incubated for 24 h in the presence of serum and the compounds to be tested. Each well was photographed at time 0 h (after wounding) and 24 h under a motorized epifluorescence microscope and the digitized images were analyzed using Image J to determine the percentage of wound closure (Figure 1A, 1B). Under our standard conditions, the closure rate was 72 ± 4% in the positive controls and 27 ± 4.% in the negative controls.
(§1) Confluent cell monolayers were wounded with a plastic pipet tip, washed gently with phosphate buffer saline (PBS) and treated with complete media containing molecules, as indicated. Cells were placed at 37°C into the incubator and photographed at indicated times. Quantitation of closure of the monolayer was performed using the NIH Image J program (http://rsbweb.nih.gov/ij/). Results are expressed as percentage of wound closure at t = 24 h as compared to the initial wound at t = 0 h.

3T3-GFP cells = test: Scratch wound closure assay, 3T3-GFP; assay type: cell-based; conditions: wound closure after 24 h, 10% FCS, tested 3.125 μM to 100 μM
Excerpt: Using this assay, we screened the academic library of the University of Grenoble, which is composed of 1360 original molecules. Setting the threshold of significant responses at 75% of the maximal inhibition, we identified 80 inhibitory molecules. At this stage, we reasoned that molecules that would affect the cytoskeleton dynamics or the adhesion properties of any cell type would be positive in this assay but would not represent good candidates for further development. We thus decided to perform a secondary counterscreen of the first 80 selected compounds on GFP-expressing 3T3 fibroblasts (3T3-GFP) using the same scratch assay. We then focused our interest on the 5 molecules that inhibited more strongly HMEC-GFP than 3T3-GFP wound healing. […] We synthesized a series of 30 analogs and tested them at various concentrations both on HMEC-GFP and 3T3-GFP cells. […] Dansyl and naphthalimide aromatic groups, found in COB223 and COB227 respectively, appeared very efficient. The presence of the diaminomethyl group on dansyl is critical for the activity of COB223 as shown by the lower efficiency of COB235 (IC50 is 8 times higher than that of COB223). COB223 and COB227 contain a tert-butyloxycarbonyl function (BOC group) as a second hydrophobic group. Replacement of BOC by an amino group decreased the efficiency and the specificity (compare 05-102-L-B09 vs 05-06-L-D03, or COB227 vs COB228).
as §1

LLC/2 tumor = test: Mouse LLC/2 tumor model; assay type: in vivo; conditions: mouse, in vivo
Experimental: We chose this model because of its rapid growth in syngenic mice and its strong dependence on angiogenesis. LLC/2 cells (10^6 in 50 μL medium) were subcutaneously injected into the right flank of […] mice. Seven days after tumor inoculation, mice were given an intraperitoneal (i.p.) injection of either solvent (1.7% DMSO) or COB223 every other day. Tumor size was measured with calipers, and the volume was calculated according to the formula (L*w^2)/2 where L and […] stand for length and width respectively. All mice were killed 21 days after tumor grafting.
Tumors collected after animal sacrifice were split into two parts and fixed either in 4% paraformaldehyde (v/v) or in formalin fixative for 24 h at 4°C and embedded in paraffin and then cut into 7 μm sections. Sections were stained using specific antibodies and the avidin–biotin immunoperoxidase detection method. Endogenous peroxidase activity was quenched by pretreatment with 3% (v/v) hydrogen peroxide in methanol for 20 min. For endothelial immunohistochemistry detection, CD31 antibody (MEC13.3, BD Pharmingen) was incubated for 2 h at room temperature. The tissue sections were subsequently washed three times with PBS and incubated with biotinylated rabbit anti-rat IgG (1:250 dilution in blocking solution; Sigma-Aldrich, Saint-Quentin Fallavier, France) for 1 h at room temperature. After three PBS washes, the slides were incubated with an avidin: biotin complex (Vectastain ABC kit; Vector Laboratories, Burlingame, CA) for 45 minutes. After a final PBS wash, the immunoreactive proteins were visualized after the addition of 3,3′-diaminobenzidine (Dako, Trappes, France) for 2 min and then counterstained with hematoxylin. Control sections were treated without primary antibody.

| Compound | IC50 (HMEC-GFP cells) | IC50 (HMEC-GFP cells; Homo sapiens) | IC50 (3T3-GFP cells) | activity on HMEC-GFP wound closure (HMEC-GFP cells) | effect on in vivo LLC/2 tumor growth (LLC/2 tumor) |
| --- | --- | --- | --- | --- | --- |
| CN(C)c1cccc2c(S(=O)(=O)NCCCO)cccc12 [COB220, 5-(Dimethylamino)-N-[3-hydroxypropyl]naphthalene-1-sulfonamide] | – | 40 µM | > 50 µM | – | – |
| CN(C)c1cccc2c(S(=O)(=O)NCCOCCO)cccc12 [COB225, 2-{2-[5-(Dimethylamino)naphthalene-1-sulfonamido]ethoxy}ethan-1-ol] | – | > 50 µM | > 50 µM | – | – |
| CC(C)(C)OC(=O)NCCCN1CCN(CCCN2C(=O)c3cccc4cccc(c34)C2=O)CC1 [COB227, N-{3-[4-(3-tert-Butoxycarbonylaminopropyl)piperazin-1-yl]propyl}-1,8-naphthalimide] | – | 18 µM | 250 µM | – | no inhibition |
| Cc1ccc(S(=O)(=O)NCCCN2CCN(CCCNC(=O)OC(C)(C)C)CC2)cc1 [COB236, tert-Butyl 3-(4-(3-(4-methylphenylsulfonamido)propyl)piperazin-1-yl) propylcarbamate] | – | > 50 µM | > 50 µM | – | – |
| CC(C)(C)OC(=O)NCCCN1CCN(CCCNC(=O)c2ccccc2)CC1 [COB237, tert-Butyl 3-(4-(3-phenylamidopropyl)piperazin-1-yl)propylcarbamate] | – | > 50 µM | > 50 µM | – | – |
| CC(C)(C)OC(=O)NCCCN1CCN(CCCNC(=O)OCc2ccc([N+](=O)[O-])cc2)CC1 [COB238, 4-Nitrobenzyl N-[3-(4-{3-[(tert-butoxycarbonyl)amino]propyl}piperazin-1-yl)propyl] carbamate] | – | 20 µM | > 50 µM | – | – |
| CN(C)c1ccc2c3c(cccc13)C(=O)N(CCCN1CCN(CCCNC(=O)OC(C)(C)C)CC1)C2=O [COB274, N-{3-[4-(3-tert-Butoxycarbonylaminopropyl)piperazin-1-yl]propyl}-4-dimethylamino-1,8-naphthalimide] | – | > 100 µM | – | – | – |
| CN(C)c1ccc2c3c(cccc13)C(=O)N(CCCNCCCNC(=O)OC(C)(C)C)C2=O [COB275, N-[3-((3-tert-Butoxycarbonylaminopropyl)amino)propyl]-4-dimethylamino-1,8-naphthalimide] | – | 12.5 µM | 50 µM | – | – |
| CN(C)c1ccc2c3c(cccc13)C(=O)N(CCCNC(=O)OC(C)(C)C)C2=O [COB276, N-(3-(tert-Butoxycarbonylamino)propyl)-4-dimethylamino-1,8-naphthalimide] | – | > 100 µM | – | – | – |
| O=C1c2cccc3cc([N+](=O)[O-])cc(c23)C(=O)N1CCCNCCCN1C(=O)c2cccc3cc([N+](=O)[O-])cc(c23)C1=O [COB278, Bis-[(3-nitro-1,8-naphthalimido)propyl]amine] | – | 12.5 µM | 25 µM | – | – |
| CC(C)(C)OC(=O)NCCCN1CCN(CCCN2C(=O)c3cccc4cc([N+](=O)[O-])cc(c34)C2=O)CC1 [COB280, N-{3-[4-(3-tert-Butoxycarbonylaminopropyl)piperazin-1-yl]propyl}-3-nitro-1,8-naphthalimide] | – | 25 µM | > 100 µM | – | – |
| CC(C)(C)OC(=O)NCCCNCCCN1C(=O)c2cccc3cc([N+](=O)[O-])cc(c23)C1=O [COB281, N-[3-((3-tert-Butoxycarbonylaminopropyl)amino)propyl]-3-nitro-1,8-naphthalimide] | – | 25 µM | > 50 µM | – | – |
| CC(C)(C)OC(=O)NCCCN1C(=O)c2cccc3cc([N+](=O)[O-])cc(c23)C1=O [COB282, N-(3-(tert-Butoxycarbonylamino)propyl)-3-nitro-1,8-naphthalimide] | – | > 100 µM | – | – | – |
| CC(C)(C)OC(=O)NCCCN1C(=O)c2cccc3cccc(c23)C1=O [COB283, N-(3-(tert-Butoxycarbonylamino)propyl)-1,8-naphthalimide] | – | > 100 µM | – | – | – |
| NCCCNCCCCNCCCN [spermine, reference compound] | – | – | – | inactive | – |
| N-(5-(Dimethylamino)naphthalene-1-sulfonamido)-N'-(tert-butoxycarbonyl)-1,3-diamino-propane [Compound 05-102-B09] | 18 µM | – | 150 µM | – | – |

The next lines start with results.

| IC50 (HMEC-GFP cells) | IC50 (HMEC-GFP cells; Homo sapiens) | Compound | IC50 (3T3-GFP cells) | activity on HMEC-GFP wound closure (HMEC-GFP cells) | effect on in vivo LLC/2 tumor growth (LLC/2 tumor) |
| --- | --- | --- | --- | --- | --- |
| > 50 µM | – | 1,4-bis[3-(5-(Dimethylamino)naphthalene-1-sulfonamido)propylamino]piperazine [COB222] | > 50 µM | – | – |
| > 100 µM | – | NCCCN [1,3-diaminopropane, reference compound] | – | inactive | – |
| – | 20 µM | CN(C)CCCNS(=O)(=O)c1cccc2c(N(C)C)cccc12 [COB221, 5-(Dimethylamino)-N-[3-(dimethylamino)propyl]naphthalene-1-sulfonamide] | 150 µM | – | – |
| – | > 50 µM | CN(C)c1cccc2c(S(=O)(=O)N3CCN(CCOCCO)CC3)cccc12 [COB224, 2-(2-{4-[5-(Dimethylamino)naphthalene-1-sulfonyl]piperazin-1-yl}ethoxy)ethan-1-ol] | > 50 µM | – | – |
| – | > 50 µM | NCCCN1C(=O)c2cccc3cccc(c23)C1=O [COB226, N-(3-Aminopropyl)-1,8-naphthalimide hydrochloride] | > 50 µM | – | – |
| – | 25 µM | NCCCN1CCN(CCCN2C(=O)c3cccc4cccc(c34)C2=O)CC1 [COB228, N-{3-[4-(3-Aminopropyl)piperazin-1-yl]propyl}-1,8-naphthalimide hydrochloride] | 40 µM | – | – |
| – | 40 µM | CC(C)(C)OC(=O)NCCCN1CCN(CCCNS(=O)(=O)c2cccc3ccccc23)CC1 [COB235, tert-Butyl 3-(4-(3-(naphthalene-1-sulfonamido)propyl)piperazin-1-yl) propylcarbamate] | > 50 µM | – | – |
| – | > 100 µM | NCCCN1C(=O)c2cccc3cc([N+](=O)[O-])cc(c23)C1=O [COB277, N-(3-Aminopropyl)-3-nitro-1,8-naphtalimide hydrochloride] | – | – | – |
| – | 5 µM | CN(C)c1cccc2c(S(=O)(=O)NCCOCCOCCNC(=O)OC(C)(C)C)cccc12 [COB296, tert-Butyl N-(2-[2-{2-(5-(dimethylamino)naphthalene-1-sulfonamido)ethoxy}ethoxy]ethyl) carbamate] | – | – | – |
| – | 35 µM | NCCCCCCNS(=O)(=O)c1cccc2c(Cl)cccc12 [Compound W7, reference compound] | 35 µM | – | – |
| > 100 µM | – | NCCN [Ethylene diamine, 1,2-ethylenediamine, reference compound] | – | inactive | – |
| – | > 50 µM | CN(C)c1cccc2c(S(=O)(=O)NCCCCCN)cccc12 [dansylcadaverine, monodansylcadaverine, reference compound] | > 50 µM | inactive | – |
| – | > 100 µM | NCCCCN [putrescine, 1,4-diaminobutane, reference compound] | – | inactive | – |
| 25 µM | – | N-(5-(Dimethylamino)naphthalene-1-sulfonamido)-1,3-diamino-propane [Compound 05-06-L-D03] | 200 µM | – | – |
